Our source for the IC50 values is US20040024024A1, “Aromatic sulfone hydroxamates and their use as protease inhibitors” (priority 2001, published 2004).

Holding throughout (test): In vitro MMP inhibition, IC50 determination (fluorogenic substrate I)
Format in all cases: biochemical

For one test, the target named is T1, Human recombinant MMP-9 (Homo sapiens, UniProt P14780).
T1 construct: made in house; host or cells: MMP-9-transfected HT1080 cells (spent media)
As for the experimental part:
(§1) Several hydroxamates and salts thereof were analyzed in in vitro assays to determine their ability to inhibit the MMP cleavage of peptide substrates. Inhibition (Ki) and IC50 constants were calculated from the assayed hydroxamate-MMP interactions.
(§2) Human recombinant MMP-1, MMP-2, MMP-9, MMP-13, and MMP-14 were used in this assay. All enzymes were prepared in Assignee's laboratories following usual laboratory procedures. Protocols for the preparation and use of these enzymes are available in the scientific literature. See, e.g., Enzyme Nomenclature (Academic Press, San Diego, Calif., 1992) (and the citations therein). See also, Frije et al., J. Biol. Chem., 26(24), 16766-73 (1994).
The MMP-9 proenzyme was purified by gelatin Sepharose chromatography from spent media of MMP-9-transfected HT1080 cells provided by Dr. Howard Welgus of Washington University (St. Louis, Mo.).
(§3) All MMPs were activated using 4-aminophenylmercuric acetate (“APMA”, Sigma Chemical, St. Louis, Mo.) or trypsin. MMP-9 also was activated using human recombinant MMP-3 (purified in Assignee's laboratory following standard cloning and purification techniques).
(§4) Two fluorogenic, methoxycoumarin-containing polypeptide substrates were used in the MMP inhibition assays:
(§5) MCA-ProLeuGlyLeuDpaAlaArgNH2 (I)
(§6) Here, “Dpa” is 3-(2,4-dinitrophenyl)-L-2,3-diaminopropionyl group, and “MCA” is 7-methoxycoumarin-4-yl acetyl. Substrate (I) was purchased from Baychem (Redwood City, Calif.), and substrate II was prepared Assignee's laboratory. Substrate I was used in the IC50 determination assays, while substrate II was used in the Ki determination assays. In the absence of MMP inhibitory activity, either substrate is cleaved at the Gly-Leu peptide bond. This cleavage separates the highly fluorogenic peptide from the 2,4-dinitrophenyl quencher, thus resulting in increase of fluorescent intensity.
(§7) The stock solutions of the assayed hydroxamates (or salts thereof) were prepared in 1% dimethyl sulfoxide (DMSO). These stock solutions were diluted in Buffer A (100 mM Tris-HCl, 100 mM NaCl, 10 mM CaCl2, 0.05% polyoxyethylene 23 lauryl ether, pH 7.5) to obtain solutions with different hydroxamate concentrations, i.e., assay solutions with different concentrations of the assayed MMP inhibitory compound. The experiment controls contained the same amount of Buffer A/DMSO as the assayed sample, but contained no hydroxamate (or salt thereof).
(§8) The assays from which the IC50 determinations were made were performed as follows. The MMPs were activated with either trypsin or APMA (4-aminophenylmercuric acetate, Sigma Chemical, St. Louis, Mo.). The assayed hydroxamate samples were, incubated in Microfluorrm White Plates (Dynatech, Chantilly, VA) and analyzed on a Perkin Elmer L550 plate reader (Norwalk, Conn.). The excitation wavelength was 328 nm, and the emission wavelength—415 nm. All samples (assayed hydroxamates and controls) were incubated in separate plates at room temperature in the presence of 4 μM of MMP substrate (I). As stated in the previous paragraph, samples containing varying concentrations of the same assayed hydroxamate were prepared. Inhibition was measured as a reduction in fluorescent intensity as a function of MMP inhibitor concentration.

A further test concerns the target T2, Human recombinant MMP-14 (Homo sapiens, UniProt P50281).
T2 construct: The catalytic domain enzyme was expressed in E. coli inclusion bodies, solubilized in urea; made in house
The method, then:
as §1, §2
The MMP-14 full length cDNA was provided by Dr. Gregory Goldberg of Washington University (St. Louis, Mo.). The catalytic domain enzyme was expressed in E. coli inclusion bodies, solubilized in urea, purified on a preparative […] reverse phase HPLC column, and then refolded in the presence of zinc acetate and purified for use.
as §3, §4, §5, §6, §7, §8

A further test deals with T3, Human recombinant MMP-1 (Homo sapiens, UniProt P03956).
T3 construct: made in house; host or cells: MMP-1-transfected HT-1080 cells (spent media)
T3 sequence (P03956 100-469): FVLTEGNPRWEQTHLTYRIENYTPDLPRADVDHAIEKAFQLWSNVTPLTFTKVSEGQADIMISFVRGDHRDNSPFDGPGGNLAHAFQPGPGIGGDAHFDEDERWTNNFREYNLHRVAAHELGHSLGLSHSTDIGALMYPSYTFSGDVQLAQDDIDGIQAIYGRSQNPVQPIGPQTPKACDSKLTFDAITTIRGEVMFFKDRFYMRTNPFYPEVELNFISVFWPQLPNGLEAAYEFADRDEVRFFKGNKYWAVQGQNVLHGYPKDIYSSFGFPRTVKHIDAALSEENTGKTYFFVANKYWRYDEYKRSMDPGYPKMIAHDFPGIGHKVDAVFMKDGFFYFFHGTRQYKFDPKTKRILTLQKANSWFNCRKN
As for the experimental part:
as §1, §2
The MMP-1 proenzyme was purified from the spent media of MMP-1-transfected HT-1080 cells provided by Dr. Harold Welgus of Washington University (St. Louis, Mo.). The protein was purified on a zinc chelating column.
as §3, §4, §5, §6, §7, §8

In a further test the target is T4, Human recombinant MMP-13 (Homo sapiens, UniProt P45452).
T4 construct: made in house; host or cells: baculovirus / insect cells
Put shortly:
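Fluorescence at 415 nm (excitation 328 nm) reports Gly-Leu cleavage of 4 μM quenched methoxycoumarin peptide substrate I. Human recombinant MMP-13, activated by trypsin or APMA, was incubated at room temperature with varied inhibitor concentrations in pH 7.5 Tris/NaCl/CaCl2 buffer; IC50 derived from reduced fluorescence.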

The target in another test is T5, Human recombinant MMP-2 (Homo sapiens, UniProt P08253).
T5 construct: made in house; host or cells: MMP-2-transfected p2AHT2 cells
T5 sequence (P08253 110-660): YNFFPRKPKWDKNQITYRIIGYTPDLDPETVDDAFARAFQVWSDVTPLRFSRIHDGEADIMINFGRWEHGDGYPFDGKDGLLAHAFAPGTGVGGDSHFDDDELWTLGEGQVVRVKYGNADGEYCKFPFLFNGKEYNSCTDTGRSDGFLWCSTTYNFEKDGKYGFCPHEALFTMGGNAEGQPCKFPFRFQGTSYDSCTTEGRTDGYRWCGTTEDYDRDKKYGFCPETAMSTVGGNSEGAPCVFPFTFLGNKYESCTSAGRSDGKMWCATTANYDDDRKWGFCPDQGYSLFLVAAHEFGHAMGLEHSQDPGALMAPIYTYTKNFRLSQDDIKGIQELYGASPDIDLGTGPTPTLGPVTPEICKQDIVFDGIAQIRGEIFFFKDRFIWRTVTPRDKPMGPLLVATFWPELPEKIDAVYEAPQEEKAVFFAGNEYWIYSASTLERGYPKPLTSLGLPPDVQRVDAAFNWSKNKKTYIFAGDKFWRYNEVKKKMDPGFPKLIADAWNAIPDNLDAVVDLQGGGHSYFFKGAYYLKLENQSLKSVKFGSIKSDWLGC
The method in brief: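 APMA- or trypsin-activated recombinant MMP-2 was incubated at room temperature with serial inhibitor dilutions in Tris buffer pH 7.5 (100 mM NaCl, 10 mM CaCl2, 0.05% Brij), with DMSO from 1% stocks, and 4 μM substrate I. Cleavage was read by fluorescence at 328/415 nm; IC50 was taken from the loss of fluorescence versus inhibitor concentration.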

Setting [1] is: value outside parentheses (Ki in parenthesis).

T1 sequence (P14780 107-707 limits assumed): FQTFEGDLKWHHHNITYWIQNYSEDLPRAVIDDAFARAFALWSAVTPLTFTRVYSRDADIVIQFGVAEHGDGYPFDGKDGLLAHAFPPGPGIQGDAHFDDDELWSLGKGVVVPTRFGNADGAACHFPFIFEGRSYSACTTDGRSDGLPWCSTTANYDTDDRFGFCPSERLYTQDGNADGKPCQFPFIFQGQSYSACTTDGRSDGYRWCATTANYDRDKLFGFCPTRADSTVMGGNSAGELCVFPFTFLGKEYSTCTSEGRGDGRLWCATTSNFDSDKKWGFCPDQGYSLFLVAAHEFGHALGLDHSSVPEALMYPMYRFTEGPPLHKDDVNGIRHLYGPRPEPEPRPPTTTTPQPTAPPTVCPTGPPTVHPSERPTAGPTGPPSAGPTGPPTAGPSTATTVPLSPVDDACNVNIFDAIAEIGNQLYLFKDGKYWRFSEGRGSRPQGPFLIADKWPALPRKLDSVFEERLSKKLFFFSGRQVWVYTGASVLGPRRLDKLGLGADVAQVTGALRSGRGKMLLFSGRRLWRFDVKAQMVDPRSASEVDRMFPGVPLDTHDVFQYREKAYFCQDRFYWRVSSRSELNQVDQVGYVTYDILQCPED

What is called IC50 is the midpoint of a concentration-inhibition curve. Regarding `O=C1CN(c2ccccc2)C(=O)N1CCCOc1ccc(S(=O)(=O)C2(C(=O)NO)CCOCC2)cc1` [Example 174], the IC50 is 4020 nM on Human recombinant MMP-9 (value outside parenthesis), over 10000 nM at Human recombinant MMP-14 (value outside parenthesis), over 10000 nM at Human recombinant MMP-1 (value outside parenthesis) and 5.2 nM at Human recombinant MMP-13 (value outside parenthesis).
Take `O=C1CN(c2ccccc2)C(=O)N1CCCOc1ccc(S(=O)(=O)C2(C(=O)NO)CCOCC2)cc1` [Example 263]: the IC50 on Human recombinant MMP-9 (value outside parenthesis) is 3270 nM; at Human recombinant MMP-13 (value outside parenthesis) it was 3.8 nM.
Turning to `CN(C)c1ccc(C(=O)CCCCOc2ccc(S(=O)(=O)C3(C(=O)NO)CCN(C4CC4)CC3)cc2)cc1` [Example 267], the 50% inhibitory concentration (IC50) at Human recombinant MMP-9 (value outside parenthesis) was 107 nM; on Human recombinant MMP-14 (value outside parenthesis) it was over 10000 nM; on Human recombinant MMP-1 (value outside parenthesis) it was over 10000 nM; at Human recombinant MMP-2 (value outside parenthesis) it was 18.5 nM.
Regarding `COc1ccc(SCCCCOc2ccc(S(=O)(=O)C3(C(=O)NO)CCOCC3)cc2)cc1` [Example 429], the IC50 on Human recombinant MMP-9 (setting [1]) was over 10000 nM; on Human recombinant MMP-14 (setting [1]), over 10000 nM; at Human recombinant MMP-2 (setting [1]), 6.5 nM; on Human recombinant MMP-13 (setting [1]) it was 0.5 nM.
Turning to `CC(C)(COc1ccc(S(=O)(=O)C2(C(=O)NO)CCOCC2)cc1)CSc1ccc(OC(F)(F)F)cc1` [Example 435], the IC50 at Human recombinant MMP-1 (setting [1]) is over 10000 nM; at Human recombinant MMP-2 (setting [1]) it was over 10000 nM; at Human recombinant MMP-13 (setting [1]) it was 500 nM.
On to `COc1cccc(SCC(C)(C)COc2ccc(S(=O)(=O)C3(C(=O)NO)CCOCC3)cc2)c1` [Example 436], for which the half-inhibitory concentration (IC50) at Human recombinant MMP-1 (setting [1]) is over 10000 nM; at Human recombinant MMP-2 (setting [1]), 1500 nM; at Human recombinant MMP-13 (setting [1]) it was 100 nM.
For `O=C(NO)C1(S(=O)(=O)c2ccc(OCCCOCc3cc(C(F)(F)F)cc(C(F)(F)F)c3)cc2)CCOCC1` [Example 454], in that order: over 10000 nM, 165 nM and 27 nM.
Take `CN(CCCC(=O)O)c1ccc(S(=O)(=O)C2(C(=O)NO)CCOCC2)cc1` [Example 457]: the IC50 on Human recombinant MMP-1 (setting [1]), at Human recombinant MMP-2 (setting [1]) and at Human recombinant MMP-13 (setting [1]) was over 10000 nM in each case.
Turning to `COC(=O)CCCN(C)c1ccc(S(=O)(=O)C2(C(=O)NO)CCOCC2)cc1` [Example 458], the concentration for half-maximal inhibition (IC50) is over 10000 nM on Human recombinant MMP-1 (setting [1]), 3500 nM on Human recombinant MMP-2 (setting [1]) and 1400 nM at Human recombinant MMP-13 (setting [1]).
The corresponding values for `CCCCCN(C)c1ccc(S(=O)(=O)C2(C(=O)NO)CCOCC2)cc1` [Example 459] are over 10000 nM, 700 nM and 670 nM.
For `CC(C)OCCCNc1ccc(S(=O)(=O)C2(C(=O)NO)CCOCC2)cc1` [Example 461], in that order: over 10000 nM, 2200 nM and 590 nM.
On to `CC(C)(CCc1ccccc1)Oc1ccc(S(=O)(=O)C2(C(=O)NO)CCOCC2)cc1` [Example 468], for which the IC50 on Human recombinant MMP-1 (setting [1]) was over 10000 nM; on Human recombinant MMP-2 (setting [1]) it was 2500 nM; at Human recombinant MMP-13 (setting [1]) it was 1500 nM.
`CC(CCOc1ccc(S(=O)(=O)C2(C(=O)NO)CCOCC2)cc1)CC(C)(C)C` (stereo not drawn) [Example 469]: the half-maximal inhibitory concentration (IC50) at Human recombinant MMP-1 (setting [1]) was over 10000 nM; on Human recombinant MMP-2 (setting [1]), 145 nM; on Human recombinant MMP-13 (setting [1]) it was 60 nM.
For `CC(C)=CCCC(C)CCOc1ccc(S(=O)(=O)C2(C(=O)NO)CCOCC2)cc1` (stereo not drawn) [Example 470], in that order: over 10000 nM, 7 nM and 3 nM.
Turning to `CC(C)=CC1C(COc2ccc(S(=O)(=O)C3(C(=O)NO)CCOCC3)cc2)C1(C)C` (stereo not drawn) [Example 471], the half-maximal inhibitory concentration (IC50) on Human recombinant MMP-1 (setting [1]) is over 10000 nM; on Human recombinant MMP-2 (setting [1]), 270 nM; on Human recombinant MMP-13 (setting [1]) it was 120 nM.
Turning to `COC(C)(C)CCCC(C)CCOc1ccc(S(=O)(=O)C2(C(=O)NO)CCOCC2)cc1` (stereo not drawn) [Example 474], the IC50 on Human recombinant MMP-1 (setting [1]) was over 10000 nM; on Human recombinant MMP-2 (setting [1]), 12 nM; at Human recombinant MMP-13 (setting [1]), 3 nM.
The corresponding values for `CC1CCCCC1COc1ccc(S(=O)(=O)C2(C(=O)NO)CCOCC2)cc1` (stereo not drawn) [Example 477] are 1300 nM, 1.5 nM and 2 nM.
For the compound `O=C(NO)C1(S(=O)(=O)c2ccc(OCCOCc3cccnc3)cc2)CCOCC1` [Example 517], the 50% inhibitory concentration (IC50) at Human recombinant MMP-9 (value outside parentheses) was 138 nM; on Human recombinant MMP-14 (value outside parentheses), over 10000 nM; at Human recombinant MMP-1 (value outside parentheses), over 10000 nM; on Human recombinant MMP-2 (value outside parentheses), 34.7 nM.
Regarding `O=C(NO)C1(S(=O)(=O)c2ccc(OCCOCc3cccnc3)cc2)CCOCC1` [Example 518], the half-maximal inhibitory concentration (IC50) was 115 nM at Human recombinant MMP-9 (value outside parentheses), 967 nM on Human recombinant MMP-14 (value outside parentheses), over 10000 nM on Human recombinant MMP-1 (value outside parentheses) and 26.4 nM at Human recombinant MMP-2 (value outside parentheses).
Consider `O=C(Cc1cccs1)NCCOc1ccc(S(=O)(=O)C2(C(=O)NO)CCOCC2)cc1` [Example 617], for which the IC50 on Human recombinant MMP-9 (value outside parentheses) was determined as 413 nM; on Human recombinant MMP-14 (value outside parentheses) it was 4130 nM; on Human recombinant MMP-2 (value outside parentheses), 0.8 nM; on Human recombinant MMP-13 (value outside parentheses) it was 0.6 nM.
Turning to `CC(=O)c1ccc(OCCOc2ccc(S(=O)(=O)C3(C(=O)NO)CCOCC3)cc2)cc1` [Example 659], the IC50 on Human recombinant MMP-9 (value outside parentheses) is 47.1 nM; at Human recombinant MMP-1 (value outside parentheses), over 10000 nM; at Human recombinant MMP-2 (value outside parentheses), 3.91 nM; at Human recombinant MMP-13 (value outside parentheses) it was 0.41 nM.
